The values that follow come from publication PMC6814236, “Monitoring and characterizing soluble and membrane-bound ectonucleotidases CD73 and CD39” (PLoS ONE, 2019).

Test [1] addresses T1, membrane-associated CD73 of MDA-MB-231 cells (Homo sapiens, UniProt P21589).
T1 construct: cell-based membrane-associated CD73 from MDA-MB-231 following AMP-Glo cell-based assay; endogenous in cells; host or cells: MDA-MB-231
T1 sequence (P21589 27-574): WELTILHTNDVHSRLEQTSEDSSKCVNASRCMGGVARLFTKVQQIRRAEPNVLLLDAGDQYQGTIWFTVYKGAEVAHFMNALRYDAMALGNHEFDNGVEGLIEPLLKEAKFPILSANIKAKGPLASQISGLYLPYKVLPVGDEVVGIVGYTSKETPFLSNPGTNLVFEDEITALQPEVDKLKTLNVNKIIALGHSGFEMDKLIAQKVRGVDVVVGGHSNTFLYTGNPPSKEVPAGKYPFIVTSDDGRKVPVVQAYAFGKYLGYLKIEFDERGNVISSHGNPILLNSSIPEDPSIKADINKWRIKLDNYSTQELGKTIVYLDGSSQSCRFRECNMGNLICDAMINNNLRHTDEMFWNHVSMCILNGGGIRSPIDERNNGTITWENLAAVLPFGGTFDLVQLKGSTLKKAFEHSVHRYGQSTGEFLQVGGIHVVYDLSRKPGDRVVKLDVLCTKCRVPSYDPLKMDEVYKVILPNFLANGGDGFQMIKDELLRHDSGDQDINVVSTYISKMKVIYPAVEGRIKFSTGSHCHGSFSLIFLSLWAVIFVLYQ
As to the kind of experiment: Cell-based membrane-associated CD73 activity (AMP-Glo cell-based assay). How it is done:
• Adherent Cells preparation and assay protocol. Cells grown in 75cm^2 flasks were trypsinized and counted, and were diluted with full medium, and plated to a tissue culture grade solid white or clear bottom plate, at cell density of 25K cells in full medium (10% FBS and 1% Pen/Strep) per well, and kept overnight at 37°C in a 5% CO2 incubator. Fresh medium was added an hour before use by pipetting out ¾ volume of overnight medium from each well and replaced with a ¾ volume of fresh full growing medium. Cells were washed twice with HBSS by taking out whole medium from each well and replaced with fresh 100μl of HBSS to each well. […]
For CD73 activity using AMP as substrate, 25μl aliquots were withdrawn from each well at the desired time point and added to assay solid white plate (Corning Costar 3912 or equivalent) followed by the addition of 25μl of AMP-Glo™ Reagent I to each well, mixed well and incubated for 30min at 23°C.This was followed by the addition of 50μl per well of AMP-Glo™ Detection Solution (1ml of Kinase-Glo™ One Solution mixed with 10μl of AMP-Glo™ Reagent II), see AMP-Glo™ TM#384. This was followed by incubating the mixture for 60min at 23°C, before reading the plate using a luminometer. […]

In test [2] the target is T2, Recombinant Human 5'-Nucleotidase/CD73 (Homo sapiens, UniProt P21589).
T2 construct: purchased R&D Systems
T2 sequence (P21589 27-574): T1 sequence (P21589 27-574)
Also on record: method as in PMID 18302942, PMID 24144488. The note with it: reported by others; ref [25], [26]; cited from earlier work.

Test [3] concerns luciferase. Nature of the test: Control test of the compound on luciferase activity. It is filed as biochemical. The settings on record: control for assay interference. The source says:
Although we have not tested this assay using orthogonal assay, very recent publication used this technology (AMP Glo) to develop what they called “an exceptionally potent inhibitor of human […]” (Bowman CE, da Silva RG, Pham A, Young SW. An exceptionally potent inhibitor of human CD73. Biochemistry 2019; 58: 3331-3334) and compared their kinetic data using inorganic phosphate release and the data confirmed the validity of bioluminescence approach. Furthermore, since we launched ADP Glo for kinases and ATPases, it has been cited in over 1500 citations as well as numerus patents, and it is the main assay used for large scale screening for inhibitors in HTS laboratories. Besides, we have not found potent inhibitors of this assay other than few luciferase inhibitors which would be excluded when controls were run simultaneously. Protein concentration used in western blots for CD39 or CD39 in cells should be shown using either a housekeeping control, or the total protein concentration shown if other methods were used. Alternatively, a FACS based assay could be performed to show expression of cell surface […] or CD39.

For the compound `Nc1ncnc2c1ncn2[C@@H]1O[C@H](COP(=O)(O)CP(=O)(O)O)[C@@H](O)[C@H]1O` [AMP-CP, Adenosine 5'-(α, β-methylene) diphosphate], in test [1] (50μM inhibitor, 25k MDA-MB-231 cells per well, 10μM AMP, 37°C, time course), the “inhibition of membrane-associated CD73 activity” value is “inhibited”. The IC50 in test [1] (25K cells per well, 5μM AMP, 90min at 37°C) is 2100 nM; in test [2] it was 236 nM.
Turning to `[Na+].[Na+].[Na+].[Na+].[Na+].[Na+].[O]=[W](=[O])([O-])[O-].[O]=[W](=[O])([O-])[O-].[O]=[W](=[O])([O-])[O-].[O]=[W](=[O])=[O].[O]=[W](=[O])=[O].[O]=[W](=[O])=[O].[O]=[W](=[O])=[O].[O]=[W](=[O])=[O].[O]=[W](=[O])=[O].[O]=[W](=[O])=[O].[O]=[W](=[O])=[O].[O]=[W](=[O])=[O]` [POM1, Sodium metatungstate], in test [3], the “effect on luciferase activity” value was “no inhibitory effect”.
